Results taken from article PMC11272826, “Metabolism of alcohol ethoxylates (AEs) in rat, hamster, and human hepatocytes and liver S9: a pilot study for metabolic stability, metabolic pathway, and metabolites identification in vitro and in silico” (Archives of Toxicology, 2024).

Key:
[1] = Metabolic stability in liver S9 fraction (disappearance, half-life, CLint); conditions: for half-life at 1 µM / half-life at 10 µM / microsomal CLint at 1 µM / microsomal CLint at 10 µM: pooled liver S9, pH 7.4
Method: (§1) Calibration curves were generated using an external standard.
Intrinsic in vitro clearance was calculated as follows: […]

hamster hepatocytes [2] = experiment: Metabolite profiling by LC-MS in hepatocytes
Method: (§2) The hepatocytes were thawed and re-suspended in Celsis InVitro KHB medium (pH 7.4). […] The samples were collected and stored at − 20 °C for further analysis.
(§3) The in vitro metabolism of the five individual homologue AEs (i.e. C8EO4, C10EO5, C12EO4, C16EO8, and C18EO3) was analyzed by liquid chromatography–mass spectrometry (LC–MS). The UPLC-Q-Exactive Orbitrap MS system consisted of a Thermo Vanquish Horizon UHPLC with an autosampler, vacuum degasser, photodiode array (PDA) detector (210–500 nm), and column oven coupled to a Q-Exactive Orbitrap Focus mass spectrometer (Thermo Fisher Scientific, Waltham, MA, USA). The analytical column used was a Waters Acquity BEH C8 2.1 × 50 mm with 1.7 particle size (Waters Corp, Milford, MA, USA). The temperature of the column oven was 40 °C, and the injection volume was 4 μl. The aqueous eluent (A) was 0.1% formic acid (B) was acetonitrile. […] The eluent flow rate was 0.5 ml/min and the flow was directed to the MS through a PDA detector. The data acquisition was performed using positive Electrospray Ionization (ESI+) polarity with a capillary voltage of 3000 V. Capillary temperature was 320 °C and auxiliary gas temperature was 500 °C. The mass spectrometer was operated in the data-dependent MS2 mode, which acquires full-scan MS and MS/MS fragment ion data in the same run. Scan was performed with a resolution of 35,000 (full width at half maximum at m/z 200), while an Automated Gain Control target of a million ions, maximum injection time of 100 ms, and a scan range of 100–1000 m/z were used. […] Nitrogen was used as a sheath gas with 50 units, auxiliary gas with 10 units and as a sweep gas with 5 units. Ion chromatograms were extracted from the total ion chromatograms using calculated monoisotopic accurate masses with 5 mDa window. Calibration curves were generated using an external standard. The data were processed with Thermo Xcalibur 4.1.31.9 software.

[3] = Metabolic stability in cryopreserved hepatocytes (disappearance, half-life, CLint); conditions: human, pooled cryopreserved hepatocytes, pH 7.4
Method: (§4) The metabolic stability assay was performed in a 48-well plate format (duplicate with cells and single without cells).
as §2
(§5) The UPLC-Q-Exactive Orbitrap MS system consisted of a Thermo Vanquish Horizon UHPLC with an autosampler, vacuum degasser, photodiode array (PDA) detector (210–500 nm), and column oven coupled to a Q-Exactive Orbitrap Focus mass spectrometer (Thermo Fisher Scientific, Waltham, MA, USA). The analytical column used was a Waters Acquity BEH C8 2.1 × 50 mm with 1.7 particle size (Waters Corp, Milford, MA, USA). The temperature of the column oven was 40 °C, and the injection volume was 4 μl. The aqueous eluent (A) was 0.1% formic acid (B) was acetonitrile. […] The eluent flow rate was 0.5 ml/min and the flow was directed to the MS through a PDA detector. The data acquisition was performed using positive Electrospray Ionization (ESI+) polarity with a capillary voltage of 3000 V. Capillary temperature was 320 °C and auxiliary gas temperature was 500 °C. The mass spectrometer was operated in the data-dependent MS2 mode, which acquires full-scan MS and MS/MS fragment ion data in the same run. Scan was performed with a resolution of 35,000 (full width at half maximum at m/z 200), while an Automated Gain Control target of a million ions, maximum injection time of 100 ms, and a scan range of 100–1000 m/z were used. […] Nitrogen was used as a sheath gas with 50 units, auxiliary gas with 10 units and as a sweep gas with 5 units. Ion chromatograms were extracted from the total ion chromatograms using calculated monoisotopic accurate masses with 5 mDa window. Calibration curves were generated using an external standard. The data were processed with Thermo Xcalibur 4.1.31.9 software.
(§6) The first-order rate constants k (min^−1) of the metabolism were obtained from the slope of time versus ln (% remaining) plots using Excel software. All time points (log-scale) were used in fitting the rate constant k based on visual inspection of the curves.
(§7) The in vitro half-life (t1/2) of the test compound(s) is defined as: t1/2=ln2/k
(§8) CLint,inc = k*V/(M), where V is the volume of the incubation and M is the number of cells or amount of S9 protein in the incubation.

human hepatocytes [4] = experiment: as above; conditions: human hepatocytes, range over 1 and 10 µM
Method: as §4, §2, §5, §6, §7, §8

[5] = Metabolite profiling by LC-MS in buffer (incubation without cells); conditions: metabolite profile of C10EO5, 10 µM incubation without cells, 120 min
Method: as §2, §3

rat hepatocytes [6] = experiment: Metabolite profiling by LC-MS in hepatocytes
Method: as §2, §3

[7] = Metabolic stability in cryopreserved hepatocytes (disappearance, half-life, CLint); conditions: Sprague Dawley, rat, pooled cryopreserved hepatocytes, pH 7.4
Method: as §4, §2, §5, §6, §7, §8

rat hepatocytes [8] = experiment: as above; conditions: rat hepatocytes, range over 1 and 10 µM
Method: as §4, §2, §5, §6, §7, §8

[9] = Metabolite profiling by LC-MS in liver S9
Text: as §1

[10] = Metabolic stability in cryopreserved hepatocytes (disappearance, half-life, CLint); conditions: Syrian, hamster, pooled cryopreserved hepatocytes, pH 7.4
Method: as §4, §2, §5, §6, §7, §8

hamster hepatocytes [11] = experiment: as above; conditions: hamster hepatocytes, range over 1 and 10 µM
Method: as §4, §2, §5, §6, §7, §8

human hepatocytes [12] = experiment: Metabolite profiling by LC-MS in hepatocytes
Method: as §2, §3

[13] = Metabolic stability in liver S9 fraction (disappearance, half-life, CLint)
Method: The metabolic stability assay was performed in a 48-well plate format (duplicate with cofactors and single without cofactors).
Each incubation contained test compound (final concentration of 1 or 10 µM), liver S9 (1.5 mg/ml protein content), Cofactors (1 mM NADPH + 1 mM UDPGA + 0.2 mM PAPS), MgCl2 (2 mM), and potassium phosphate buffer (100 mM at pH 7.4). […] The incubation was carried out at 37 °C for 60 min with and without cofactors. […] The samples were collected and stored at − 20 °C for further analysis.
as §3, §6, §7, §8

[14] = metabolite profile of C10EO5, 10 µM incubation, 120 min
[15] = metabolite profile of C10EO5, 10 µM incubation, 60 min

**Q.** For CCCCCCCCCCOCCOCCOCCOCCOCCO [C10EO5], which half-life at 1 µM ([1]; Sprague-Dawley, rat) is on record?
**A.** Its half-life at 1 µM is 8.3 min.

**Q.** What about the half-life at 10 µM ([1]; Sprague-Dawley, rat) of the same molecule?
**A.** Its half-life at 10 µM is 12 min.

**Q.** And the microsomal CLint at 1 µM ([1]; Sprague-Dawley, rat)?
**A.** Its microsomal CLint at 1 µM is 55.7 µL/min/mg.

**Q.** And the microsomal CLint at 10 µM ([1]; Sprague-Dawley, rat)?
**A.** The microsomal CLint at 10 µM was 38 µL/min/mg.

**Q.** What about the half-life at 1 µM ([1]; Syrian, hamster) of the same molecule?
**A.** The half-life at 1 µM was 8.1 min.

**Q.** And the half-life at 10 µM ([1]; Syrian, hamster)?
**A.** Its half-life at 10 µM is 12 min.

**Q.** And the microsomal CLint at 1 µM ([1]; Syrian, hamster)?
**A.** Its microsomal CLint at 1 µM is 57.3 µL/min/mg.

**Q.** And the microsomal CLint at 10 µM ([1]; Syrian, hamster)?
**A.** Its microsomal CLint at 10 µM is 40 µL/min/mg.

**Q.** What about the “Initial concentration remaining after 60 min incubation” value ([1]; hamster liver S9, range over 1 and 10 µM) of the same molecule?
**A.** The value was 0.01–4%.

**Q.** What about the “Initial concentration remaining after 60 min incubation” value ([1]; rat liver S9, range over 1 and 10 µM) of the same molecule?
**A.** Its value is 0.01–4%.

**Q.** And the “Number of metabolites detected” value (hamster hepatocytes [2]; hamster hepatocytes)?
**A.** Its value is 28.

**Q.** And the “Percentage of the total peak area, Hepatocytes, Hamster” value (hamster hepatocytes [2]; [14])?
**A.** Its value is 0.7%.

**Q.** What about the half-life at 1 µM [3] of the same molecule?
**A.** The half-life at 1 µM was 4 min.

**Q.** And the half-life at 10 µM [3]?
**A.** Its half-life at 10 µM is 4.9 min.

**Q.** What about the “Initial concentration remaining after 120 min incubation” value (human hepatocytes [4]) of the same molecule?
**A.** The value was 0.2–4%.

**Q.** And the “Percentage of the total peak area, Hepatocytes, Buffer” value [5]?
**A.** The value was 98.7%.

**Q.** And the “Percentage of the total peak area, Hepatocytes, Rat” value (rat hepatocytes [6]; [14])?
**A.** Its value is 0.8%.

**Q.** And the “Number of metabolites detected” value (rat hepatocytes [6]; rat hepatocytes)?
**A.** The value was 28.

**Q.** And the half-life at 1 µM [7]?
**A.** The half-life at 1 µM was 2.9 min.

**Q.** And the half-life at 10 µM [7]?
**A.** Its half-life at 10 µM is 1.9 min.

**Q.** And the “Initial concentration remaining after 120 min incubation” value (rat hepatocytes [8])?
**A.** Its value is 0.2–4%.

**Q.** And the “Number of metabolites detected” value ([9]; human liver S9)?
**A.** The value was 26.

**Q.** And the “Percentage of the total peak area, Liver S9 without cofactors, Hamster” value [9, 15]?
**A.** Its value is 97.9%.

**Q.** And the “Percentage of the total peak area, Liver S9 without cofactors, Human” value [9, 15]?
**A.** The value was 97.7%.

**Q.** And the “Percentage of the total peak area, Liver S9 without cofactors, Rat” value [9, 15]?
**A.** Its value is 98.2%.

**Q.** What about the half-life at 1 µM [10] of the same molecule?
**A.** The half-life at 1 µM was 4.5 min.

**Q.** And the half-life at 10 µM [10]?
**A.** The half-life at 10 µM was 10.6 min.

**Q.** And the “Initial concentration remaining after 120 min incubation” value (hamster hepatocytes [11])?
**A.** The value was 0.2–4%.

**Q.** What about the “Number of metabolites detected” value (human hepatocytes [12]; human hepatocytes) of the same molecule?
**A.** The value was 28.

**Q.** And the “Percentage of the total peak area, Hepatocytes, Human” value (human hepatocytes [12]; [14])?
**A.** The value was 0.3%.

**Q.** What about the “Initial concentration remaining after 60 min incubation” value ([13]; human liver S9, range over 1 and 10 µM) of the same molecule?
**A.** The value was 0.01–4%.

**Q.** And the microsomal CLint at 1 µM ([13]; human, pooled liver S9, pH 7.4)?
**A.** The microsomal CLint at 1 µM was 234 µL/min/mg.

**Q.** And the microsomal CLint at 10 µM ([13]; human, pooled liver S9, pH 7.4)?
**A.** Its microsomal CLint at 10 µM is 170 µL/min/mg.

**Q.** What about the half-life at 1 µM ([13]; human, pooled liver S9, pH 7.4, Half-lives t1/2, Liver S9, 1 μM) of the same molecule?
**A.** The half-life at 1 µM was 2 min.

**Q.** And the half-life at 10 µM ([13]; human, pooled liver S9, pH 7.4, Half-lives t1/2, Liver S9, 10 μM)?
**A.** The half-life at 10 µM was 2.7 min.
